Active and inactive are the calls of the source. The rule behind the calls is not given here.
Legend:
[1] = Solubility of the compound; assay type: physicochemical
[2] = biological target: T1, Mitogen-activated protein kinase 14 (Homo sapiens, UniProt Q16539)
[3] = biological target: T1, Mitogen-activated protein kinase 14; experiment: Inhibition of N-terminus His-tagged human p38alpha expressed in Escherichia coli BL21 DE3 using GST-tagged ATF2 as substrate after 90 mins by HTRF assay
[4] = biological target: T1, Mitogen-activated protein kinase 14; experiment: Inhibition of p38alpha-mediated MK2 phosphorylation in anisomysin-stimulated human HeLa cells after 2 hrs by immunoblot analysis
[5] = biological target: T1, Mitogen-activated protein kinase 14; experiment: Binding affinity to N-terminus His-tagged human p38alpha expressed in Escherichia coli BL21 DE3 at 1 nM to 10 uM after 5 hrs by fluorescence analysis
[6] = biological target: T1, Mitogen-activated protein kinase 14; experiment: Inhibition of p38alpha-mediated MK2 phosphorylation in anisomysin-stimulated human HeLa cells at 0.5 to 50 uM after 2 hrs by immunoblot analysis; assay type: cell-based

T1 sequence (Q16539 whole entry): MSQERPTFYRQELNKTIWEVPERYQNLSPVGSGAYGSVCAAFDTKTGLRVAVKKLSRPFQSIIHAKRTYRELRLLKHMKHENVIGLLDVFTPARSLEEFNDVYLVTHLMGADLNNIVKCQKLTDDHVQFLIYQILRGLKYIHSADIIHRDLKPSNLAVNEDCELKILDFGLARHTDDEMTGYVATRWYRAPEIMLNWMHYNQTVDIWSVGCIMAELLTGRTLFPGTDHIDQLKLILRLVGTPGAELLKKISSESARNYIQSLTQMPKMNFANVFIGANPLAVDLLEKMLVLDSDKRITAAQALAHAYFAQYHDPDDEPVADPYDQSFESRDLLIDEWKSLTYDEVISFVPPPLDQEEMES

| SMILES | Kd [2] | further results |
| --- | --- | --- |
| O=C(Nc1ccc(Cl)c(C(F)(F)F)c1)Nc1nc(CCOCc2ccccc2)cs1 | – | solubility [1]: Insoluble |
| O=C(O)Cc1cccc(-n2nc(C3CC3)cc2NC(=O)Nc2nc(CCOCc3ccccc3)cs2)c1 | 14700 nM | – |
| CC(C)(C)c1cc(NC(=O)Nc2nc(CCOCc3ccccc3)cs2)n(-c2ccc(CC(=O)O)cc2)n1 | 287 nM | – |
| CCOC(=O)Cc1ccc(-n2nc(C(C)(C)C)cc2NC(=O)Nc2nccs2)cc1 | 675 nM | IC50 [3]: 639 nM; IC50 [4]: 6000 nM |
| O=C(Nc1nc(CCOCc2ccccc2)cs1)c1cc(F)cc(N2CCOCC2)c1 | – | Activity [5]: inactive |
| Cc1ccc(-n2nc(C(C)(C)C)cc2NC(=O)Nc2nc(CCOCc3ccccc3)cs2)cc1 | 382 nM | – |
| NC(COCc1ccccc1)c1csc(NC(=O)Nc2ccc(Cl)c(F)c2)n1 (stereo not drawn) | 13400 nM | – |
| Cc1ccc(-n2nc(C(C)(C)C)cc2NC(=O)Nc2nccs2)cc1 | 990 nM | – |
| Cc1ccc(-n2nc(C(C)(C)C)cc2NC(=O)Nc2nc(CCOCc3ccncc3)cs2)cc1 | 586 nM | – |
| O=C(O)Cc1ccc(-n2nc(C3CCCC3)cc2NC(=O)Nc2nc(CCOCc3ccccc3)cs2)cc1 | 901 nM | – |
| O=C(O)Cc1cccc(-n2nc(C3CCCC3)cc2NC(=O)Nc2nc(CCOCc3ccccc3)cs2)c1 | 580 nM | – |
| CC(C)(C)c1cc(NC(=O)Nc2nccs2)n(-c2ccc(CC(=O)O)cc2)n1 | 196 nM | inhibition [6]: inactive; IC50 [3]: 135 nM |
| Cc1ccc(-n2nc(C(C)(C)C)cc2NC(=O)Nc2nc(CCOCc3ccc(F)cc3)cs2)cc1 | 303 nM | – |
| CC(C)(C)c1cc(NC(=O)Nc2nc(CCOCc3ccccc3)cs2)n(-c2cccc(CC(=O)O)c2)n1 | 920 nM | – |

Reference: ChEMBL document CHEMBL1938373, “Structure-based design, synthesis and biological evaluation of N-pyrazole, N'-thiazole urea inhibitors of MAP kinase p38α” (Eur J Med Chem, 2012)
